Assay results reported in paper PMC9154192 (PLoS Biology, 2022).
Values after ≈ are worked out from the molar mass of the structure shown.

How the values were obtained:
Format in all cases: cell-based, Mycobacterium tuberculosis
[1] = test system: PP1S-resistant M. tuberculosis
[2] = test system: PP2S-resistant M. tuberculosis
M. tuberculosis H37Rv = details: at 200 μg/ml and above

Structure (SMILES) | MIC [1] | MIC [2] | occurrence of resistant strains (M. tuberculosis H37Rv)
CO[C@H]1/C=C/O[C@@]2(C)Oc3c(C)c(O)c4c(O)c(c(/C=N/N5CCN(C)CC5)c(O)c4c3C2=O)NC(=O)/C(C)=C\C=C\[C@H](C)[C@H](O)[C@@H](C)[C@@H](O)[C@@H](C)[C@H](OC(C)=O)[C@@H]1C [RIF, rifampicin, reference compound] | 0.1 µg/mL (≈ 0.122 µM) | 0.2 µg/mL (≈ 0.243 µM) | –
CCCCOc1ccc2cc(CN3C(=O)CC[C@H]3C(=O)OC)c3cc(OC)c(OC)cc3c2c1 [PP2S, Methyl (S)-1-((3-butoxy-6,7-dimethoxyphenanthren-9-yl)methyl)-5-oxopyrrolidine-2-carboxylate] | > 100 µg/mL | > 100 µg/mL | did not occur directly
NNC(=O)c1ccncc1 [INH, isoniazid, reference compound] | 0.2 µg/mL (≈ 1.46 µM) | 0.4 µg/mL (≈ 2.92 µM) | –
NC(=O)c1cnccn1 [PZA, pyrazinamide] | > 100 µg/mL | > 100 µg/mL | –
CC[C@@H](CO)NCCN[C@@H](CC)CO [EMB, ethambutol] | 1.6 µg/mL (≈ 7.83 µM) | 1.6 µg/mL (≈ 7.83 µM) | –
COC(=O)[C@@H]1CCC(=O)N1Cc1cc2ccc(OC)cc2c2cc(OC)c(OC)cc12 [PP1S, (S)-N-[(2,3,6-Trimethoxy-10-phenanthryl)methyl]-pyroglutamic acid methyl ester] | > 100 µg/mL | > 100 µg/mL | –
COC(=O)[C@@H]1CCC(=O)N1Cc1cc2ccc(OCc3ccccc3)cc2c2cc(OC)c(OC)cc12 [PP3S, Methyl (S)-1-{[3-(Benzyloxy)-6,7-dimethoxy-9-phenanthryl]methyl}-5-oxopyrrolidine-2-carboxylate] | > 100 µg/mL | > 100 µg/mL | –
[H]/N=C(/N)N[C@H]1[C@H](O)[C@@H](O)[C@H](O[C@@H]2O[C@@H](C)[C@](O)(C=O)[C@H]2O[C@@H]2O[C@@H](CO)[C@H](O)[C@@H](O)[C@@H]2NC)[C@@H](N/C(N)=N\[H])[C@@H]1O [STR, streptomycin] | 0.2 µg/mL (≈ 0.344 µM) | 0.4 µg/mL (≈ 0.688 µM) | –
